Results published in patent US20130029923A1, “Materials and Methods for Prevention and Treatment of Viral Infections” (priority 2009, published 2013).

System: influenza virus H1N1 (A/Victoria/07159200/07), oseltamivir-resistant strain
Type: cell-based, human influenza virus

For `C[C@@H]1O[C@@H](OC[C@H]2O[C@@H](OCCc3ccc(O)c(O)c3)[C@H](O)[C@@H](O)[C@@H]2OC(=O)/C=C/c2ccc(O)c(O)c2)[C@H](O)[C@H](O)[C@H]1O` [Compound A1, forsythoside A], the “suppression of virus replication (TCID50) compared with DMSO-treated cells” value was roughly 3 fold.
